Measurements from PubChem BioAssay AID248 (DTP/NCI, 2004).
Where “and” joins values, the source holds several entries; their conditions need not be identical. Equal values may be shown once. Inconclusive results and toxic doses are left out. No stated cut-off is given here; in the data, active means T/C of 150% or more; inactive means T/C below 125%.

Tested on: L1210 leukemia ip in BDF1 mice, survival T/C
Assay: NCI In Vivo Anticancer Drug Screen. Data for tumor model L1210 Leukemia (intraperitoneal) in B6D2F1 (BDF1) mice
Conditions: endpoint: mean survival time, higher = longer survival
Outline: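 Each compound was tested against a transplantable tumor grown in mice. The endpoint was survival, with treated animals benchmarked against vehicle controls as a simple ratio.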

[1] = dose: 100.0 mg/kg/injection, schedule: Q01DX009 (ip), vehicle: saline
[2] = dose: 100.0 mg/kg/injection, schedule: Q04DX003 (ip), vehicle: saline
[3] = dose: 200.0 mg/kg/injection, schedule: Q01DX009 (ip), vehicle: saline
[4] = dose: 200.0 mg/kg/injection, schedule: Q04DX003 (ip), vehicle: saline
[5] = dose: 400.0 mg/kg/injection, schedule: Q01DX009 (ip), vehicle: saline
[6] = dose: 400.0 mg/kg/injection, schedule: Q04DX003 (ip), vehicle: saline
[7] = dose: 5.0 mg/kg/injection, schedule: Q01DX001 (ip), vehicle: saline
[8] = dose: 10.0 mg/kg/injection, schedule: Q01DX001 (ip), vehicle: saline
[9] = dose: 50.0 mg/kg/injection, schedule: Q01DX009 (ip), vehicle: Klucel (hydroxypropylcellulose) (HPC)
[10] = dose: 100.0 mg/kg/injection, schedule: Q01DX009 (ip), vehicle: Klucel (hydroxypropylcellulose) (HPC)
[11] = dose: 100.0 mg/kg/injection, schedule: Q04DX003 (ip), vehicle: Klucel (hydroxypropylcellulose) (HPC)
[12] = dose: 200.0 mg/kg/injection, schedule: Q01DX009 (ip), vehicle: Klucel (hydroxypropylcellulose) (HPC)
[13] = dose: 200.0 mg/kg/injection, schedule: Q04DX003 (ip), vehicle: Klucel (hydroxypropylcellulose) (HPC)
[14] = dose: 400.0 mg/kg/injection, schedule: Q04DX003 (ip), vehicle: Klucel (hydroxypropylcellulose) (HPC)
[15] = dose: 400.0 mg/kg/injection, schedule: Q01DX009 (ip), vehicle: Klucel (hydroxypropylcellulose) (HPC)
[16] = dose: 100.0 mg/kg/injection, schedule: Q01DX001 (ip), vehicle: saline
[17] = dose: 200.0 mg/kg/injection, schedule: Q01DX001 (ip), vehicle: saline
[18] = dose: 400.0 mg/kg/injection, schedule: Q01DX001 (ip), vehicle: saline
[19] = dose: 100.0 mg/kg/injection, schedule: Q01DX001 (ip), vehicle: carboxymethylcellulose (CMC)
[20] = dose: 100.0 mg/kg/injection, schedule: Q01DX001 (ip), vehicle: saline with Tween-80
[21] = dose: 200.0 mg/kg/injection, schedule: Q01DX001 (ip), vehicle: saline with Tween-80
[22] = dose: 400.0 mg/kg/injection, schedule: Q01DX001 (ip), vehicle: saline with Tween-80

Measured: T/C

CCOC(=N)N1C(N)=NC(=O)C1c1ccccc1 (stereo not drawn)
inactive: [1] 105 % of control | [2] 110 % of control | [3] 110 % of control | [4] 103 % of control | [5] 96 % of control | [6] 105 % of control

O=C(c1ccccc1)N1CCC(CCO)C(O)C1Cc1c[nH]c2ccccc12 (stereo not drawn)
inactive: [1] 96 % of control | [2] 100 % of control | [3] 93 % of control | [4] 94 % of control | [5] 98 % of control | [6] 92 % of control

Nc1ncc2c(n1)SCC2
inactive: [7] 104 % of control | [8] 104 % of control | dose: 20.0 mg/kg/injection, schedule: Q01DX001 (ip), vehicle: saline 102 % of control | dose: 40.0 mg/kg/injection, schedule: Q01DX001 (ip), vehicle: saline 102 % of control | dose: 80.0 mg/kg/injection, schedule: Q01DX001 (ip), vehicle: saline 116 % of control

CC(C)=CCCNC(=O)NS(=O)(=O)c1ccc(Cl)cc1
inactive: [9] 101 % of control | [10] 95 % of control | [11] 104 % of control | [12] 102 % of control | [13] 110 % of control | [14] 95 % of control

Cc1cc(Cl)cc(C)c1OC(=O)Nc1ccc(F)cc1
inactive: [10] 96 % of control | [12] 95 % of control | [15] 107 % of control

CCC(C)NCCNCCNC(C)CC (stereo not drawn)
inactive: dose: 6.25 mg/kg/injection, schedule: Q01DX009 (ip), vehicle: saline 101 % of control | dose: 6.25 mg/kg/injection, schedule: Q04DX003 (ip), vehicle: Klucel (hydroxypropylcellulose) (HPC) 102 % of control | dose: 12.5 mg/kg/injection, schedule: Q01DX009 (ip), vehicle: saline 108 % of control | dose: 12.5 mg/kg/injection, schedule: Q04DX003 (ip), vehicle: Klucel (hydroxypropylcellulose) (HPC) 102 % of control | dose: 25.0 mg/kg/injection, schedule: Q01DX009 (ip), vehicle: saline 90 % of control | dose: 25.0 mg/kg/injection, schedule: Q04DX003 (ip), vehicle: Klucel (hydroxypropylcellulose) (HPC) 109 % of control

O=c1c(O)c(-c2ccc(Cl)cc2)oc2ccccc12
inactive: dose: 50.0 mg/kg/injection, schedule: Q01DX001 (ip), vehicle: saline 87 % of control | [16] 93 % of control | [17] 93 % of control | [18] 98 % of control

O=C(O)C(Br)Cc1cnc[nH]1 (stereo not drawn)
inactive: dose: 50.0 mg/kg/injection, schedule: Q01DX009 (ip), vehicle: saline 106 % of control | [1] 106 % of control | [3] 98 % of control

Nc1ccc(Cc2ccncc2)cc1
inactive: dose: 25.0 mg/kg/injection, schedule: Q01DX001 (ip), vehicle: carboxymethylcellulose (CMC) 105 % of control | dose: 25.0 mg/kg/injection, schedule: Q01DX009 (ip), vehicle: carboxymethylcellulose (CMC) 102 % of control and 92 % of control | dose: 25.0 mg/kg/injection, schedule: Q04DX002 (ip), vehicle: carboxymethylcellulose (CMC) 94 % of control | dose: 25.0 mg/kg/injection, schedule: Q04DX003 (ip), vehicle: carboxymethylcellulose (CMC) 97 % of control | dose: 50.0 mg/kg/injection, schedule: Q01DX001 (ip), vehicle: carboxymethylcellulose (CMC) 102 % of control | dose: 50.0 mg/kg/injection, schedule: Q01DX009 (ip), vehicle: carboxymethylcellulose (CMC) 95 % of control and 98 % of control | dose: 50.0 mg/kg/injection, schedule: Q04DX002 (ip), vehicle: carboxymethylcellulose (CMC) 93 % of control and 103 % of control | dose: 50.0 mg/kg/injection, schedule: Q04DX003 (ip), vehicle: carboxymethylcellulose (CMC) 100 % of control | [19] 103 % of control | dose: 100.0 mg/kg/injection, schedule: Q01DX009 (ip), vehicle: carboxymethylcellulose (CMC) 94 % of control and 103 % of control | dose: 200.0 mg/kg/injection, schedule: Q04DX002 (ip), vehicle: carboxymethylcellulose (CMC) 94 % of control

COCCNCCOC
inactive: dose: 50.0 mg/kg/injection, schedule: Q04DX003 (ip), vehicle: saline 106 % of control | [1] 103 % of control | [2] 100 % of control | [3] 98 % of control | [4] 122 % of control | [5] 104 % of control | [6] 103 % of control

CCOC(=O)c1c(C)[nH]c(C)cc1=O
inactive: [20] 95 % of control | dose: 100.0 mg/kg/injection, schedule: Q01DX009 (ip), vehicle: saline with Tween-80 98 % of control | [21] 95 % of control | dose: 200.0 mg/kg/injection, schedule: Q01DX009 (ip), vehicle: saline with Tween-80 102 % of control | [22] 90 % of control | dose: 400.0 mg/kg/injection, schedule: Q01DX009 (ip), vehicle: saline with Tween-80 95 % of control

CC(=O)C[n+]1ccccc1
inactive: [16] 106 % of control and 97 % of control | dose: 100.0 mg/kg/injection, schedule: Q01DX009 (ip), vehicle: acetone 96 % of control | [17] 100 % of control and 95 % of control | dose: 200.0 mg/kg/injection, schedule: Q01DX009 (ip), vehicle: acetone 105 % of control | [18] 89 % of control and 97 % of control | dose: 400.0 mg/kg/injection, schedule: Q01DX009 (ip), vehicle: acetone 89 % of control

CCC1C(=O)OCc2c1cc1n(c2=O)Cc2cc3ccccc3nc2-1 (stereo not drawn)
inactive: dose: 2.5 mg/kg/injection, schedule: Q01DX001 (ip), vehicle: saline 102 % of control | [7] 107 % of control | [8] 102 % of control | dose: 15.0 mg/kg/injection, schedule: Q01DX001 (ip), vehicle: saline 118 % of control

Nc1ncnc2nccnc12
inactive: dose: 25.0 mg/kg/injection, schedule: Q01DX Z (ip), vehicle: saline 103 % of control | dose: 75.0 mg/kg/injection, schedule: Q01DX Z (ip), vehicle: saline 89 % of control

Cc1sc2c(c1-c1ccccc1)C(=O)CCCN2
inactive: dose: 100.0 mg/kg/injection, schedule: Q04DX003 (ip), vehicle: saline with Tween-80 94 % of control | dose: 200.0 mg/kg/injection, schedule: Q04DX003 (ip), vehicle: saline with Tween-80 100 % of control | dose: 400.0 mg/kg/injection, schedule: Q04DX003 (ip), vehicle: saline with Tween-80 100 % of control

O=c1[nH]cc(CN(CCO)CCO)c(=O)[nH]1
inactive: dose: 100.0 mg/kg/injection, schedule: Q01DX Z (ip), vehicle: saline 101 % of control | dose: 200.0 mg/kg/injection, schedule: Q01DX Z (ip), vehicle: saline 103 % of control

O=C(/C=C/c1ccco1)c1cccc([N+](=O)[O-])c1
inactive: [20] 97 % of control | [21] 95 % of control | [22] 92 % of control

CCCCC(=O)N/N=C\c1cc(Cl)ccc1[N+](=O)[O-]
inactive: [19] 96 % of control | dose: 200.0 mg/kg/injection, schedule: Q01DX001 (ip), vehicle: carboxymethylcellulose (CMC) 91 % of control | dose: 400.0 mg/kg/injection, schedule: Q01DX001 (ip), vehicle: carboxymethylcellulose (CMC) 96 % of control

Clc1ccc(Br)c(Cl)c1
inactive: [10] 98 % of control | [11] 94 % of control | [12] 94 % of control | [13] 109 % of control | [15] 92 % of control | [14] 93 % of control

CCCCC#CC(=O)OC(C)CC (stereo not drawn)
inactive: dose: 100.0 mg/kg/injection, schedule: Q04DX002 (ip), vehicle: saline 104 % of control | dose: 200.0 mg/kg/injection, schedule: Q04DX002 (ip), vehicle: saline 92 % of control | dose: 400.0 mg/kg/injection, schedule: Q04DX002 (ip), vehicle: saline 101 % of control

CCOC(=O)C(O)C(Cl)(CC)c1ccccc1 (stereo not drawn)
inactive: dose: 100.0 mg/kg/injection, schedule: Q04DX002 (ip), vehicle: Klucel (hydroxypropylcellulose) (HPC) 95 % of control | dose: 200.0 mg/kg/injection, schedule: Q04DX002 (ip), vehicle: Klucel (hydroxypropylcellulose) (HPC) 100 % of control | dose: 400.0 mg/kg/injection, schedule: Q04DX002 (ip), vehicle: Klucel (hydroxypropylcellulose) (HPC) 122 % of control

O=C(O)c1ccccc1C(=O)Nc1ccc([N+](=O)[O-])cc1Cl
inactive: [9] 94 % of control | [10] 95 % of control | [11] 97 % of control | [12] 89 % of control | [13] 97 % of control
